# Values of other authors in patent US20040142914A1, “Extended transdermal contraceptive regimens” (priority 2002, published 2004).
# Details: humans
compound,measurement,value
C#C[C@]1(OC(C)=O)CC[C@H]2[C@@H]3CCC4=CC(=NO)CC[C@@H]4[C@H]3CC[C@@]21CC (mixture of isomers) [norgestimate],share of norgestimate converted to norelgestromin in vivo,≥ 80%
